Laboratory results as given in ChEMBL document CHEMBL3046082, “Control of Rice Blast Disease by Submerged Treatment with SSF-126” (J Pestic Sci, 1997).

Columns and labels:
[1] = test system: Leaf; test: Drug level in Oryza sativa (rice) plant leaf at 18 g/a after 10 days; assay type: ADME; conditions: 240 h
[2] = test system: Leaf; test: Drug level in Oryza sativa (rice) plant leaf at 18 g/a up to 42 days; assay type: ADME; conditions: 1008 h
[3] = test system: Root; test: Drug level in Oryza sativa (rice) plant root at 18 g/a up to 42 days; assay type: ADME; conditions: 1008 h
[4] = test system: Pyricularia oryzae; test: Antifungal activity against Magnaporthe oryzae in fourth-leaf stage of rice plant assessed as appressorial formation at 9 g/a after 24 hr (reference value: 90.4 +/- 5.6%); assay type: functional
[5] = test system: Pyricularia oryzae; test: Antifungal activity against Magnaporthe oryzae in fourth-leaf stage of rice plant assessed as appressorial formation at 18 g/a after 24 hr (reference value: 90.4 +/- 5.6%); assay type: functional
[6] = test system: Pyricularia oryzae; test: Antifungal activity against Magnaporthe oryzae in fourth-leaf stage of rice plant assessed as appressorial formation at 36 g/a after 24 hr (reference value: 90.4 +/- 5.6%); assay type: functional
[7] = test system: Pyricularia oryzae; test: Antifungal activity against Magnaporthe oryzae in fourth-leaf stage of rice plant assessed as spore germination at 9 g/a after 24 hr (reference value: 97.2 +/- 2.7%); assay type: functional
[8] = test system: Pyricularia oryzae; test: Antifungal activity against Magnaporthe oryzae in fourth-leaf stage of rice plant assessed as spore germination at 18 g/a after 24 hr (reference value: 97.2 +/- 2.7%); assay type: functional
[9] = test system: Pyricularia oryzae; test: Antifungal activity against Magnaporthe oryzae in fourth-leaf stage of rice plant assessed as spore germination at 36 g/a after 24 hr (reference value: 97.2 +/- 2.7%); assay type: functional

CNC(=O)/C(=N\OC)c1ccccc1Oc1ccccc1
Drug uptake [1]: 20 ppm | Drug uptake [2]: < 2 ppm | Drug uptake [3]: < 2 ppm | Activity [4]: 92.2% | Activity [5]: 91.2% | Activity [6]: 91.9% | Activity [7]: 97.1% | Activity [8]: 96.5% | Activity [9]: 96.4%
